Reference: patent US20090133318A1, “Anthranilamide insecticides” (priority 2004, published 2009)

Columns and labels:
Type in all cases: in vivo
[1] = test system: corn planthopper (Peregrinus maidis); assay: Test F: control of corn planthopper through contact and/or systemic means, corn plant (mixtures)
Protocol: (§1) Test compounds or mixtures were formulated using a solution containing 10% acetone, 90% water and 300 ppm X-77™ Spreader Lo-Foam Formula non-ionic surfactant containing alkylarylpolyoxyethylene, free fatty acids, glycols and 2-propanol (Loveland Industries, Inc. Greeley, Colo., USA). The formulated compounds or mixtures were applied in 1 mL of liquid through a SUJ2 atomizer nozzle with ⅛ JJ custom body (Spraying Systems Co. Wheaton, Ill., USA) positioned 1.27 cm (0.5 inches) above the top of each test unit. All experimental compounds in these tests were sprayed at 10 ppm replicated three times. For experimental mixtures in these tests, to obtain the desired mixture concentrations of each compound, twice the desired concentration of each of the two mixture partner compounds were mixed together in equal volumes.
For evaluating control of corn planthopper (Peregrinus maidis) through contact and/or systemic means, each test unit consisted of a small open cylindrical container with a 3- to 4 day-old corn (maize) plant (spike) inside. White sand was added to the top of the soil prior to application. Test mixtures were formulated and sprayed with 3 replications as described for Test A. After spraying, the test units were allowed to dry for 1 hour before they were post-infested with 10 to 20 corn planthoppers (18- to 20-day-old nymphs) by sprinkling them onto the sand with a salt shaker. A black, screened cap was placed on the top of each container. The test units were held for 6 days in a growth chamber at 19-21° C. and 50-70% relative humidity. Dead and total number of corn planthoppers were counted in each test unit to determine percent mortality.

[2] = test system: diamondback moth (Plutella xylostella); assay: Test A: control of diamondback moth, foliar spray on radish plant
From the text: For evaluating control of diamondback moth (Plutella xylostella) the test unit consisted of a small open container with a 12-14-day-old radish plant inside. This was pre-infested with 10-15 neonate larvae on a piece of insect diet by use of a core sampler to remove a plug from a sheet of hardened insect diet having many larvae growing on it and transfer the plug containing larvae and diet to the test unit. The larvae moved onto the test plant as the diet plug dried out.
as §1, with “All experimental compounds in these tests were sprayed at 10 ppm replicated three times.” left out
After spraying of the formulated test compound or mixture, each test unit was allowed to dry for 1 hour and then a black, screened cap was placed on top. The test units were held for 6 days in a growth chamber at 25° C. and 70% relative humidity. Plant feeding damage was then visually assessed based on foliage consumed.

[3] = test system: green peach aphid (Myzus persicae); assay: Test C: control of green peach aphid through contact and/or systemic means, radish plant
Protocol: as §1
For evaluating control of green peach aphid (Myzus persicae) through contact and/or systemic means, the test unit consisted of a small open container with a 12- to 15-day-old radish plant inside. This was pre-infested by placing on a leaf of the test plant 30-40 aphids on a piece of leaf excised from a culture plant (cut-leaf method). The larvae moved onto the test plant as the leaf piece desiccated. After pre-infestation, the soil of the test unit was covered with a layer of sand.
All test compounds were formulated and sprayed at 50 ppm as described for Test A and replicated three times. Test mixtures were formulated as described for Test A and replicated three times. After spraying of the formulated test compound or mixture, each test unit was allowed to dry for 1 hour and then a black, screened cap was placed on top. The test units were held for 6 days in a growth chamber at 19-21° C. and 50-70% relative humidity. Dead and total number of aphids were counted in each test unit to determine percent mortality.

[4] = test system: western flower thrips (Frankliniella occidentalis Pergande); assay: Test G: control of western flower thrips through contact and/or systemic means, bean plant (mixtures)
Protocol: as §1
For evaluating control of the western flower thrips (Frankliniella occidentalis Pergande) through contact and/or systemic means, each test unit consisted of a small open container with a 5- to 7-day-old bean (var. Soleil) plant inside.
Test mixtures were formulated and sprayed with 3 replications as described for Test A. After spraying, the test units were allowed to dry for 1 hour, 22 to 27 adult thrips were added to each unit and then a black, screened cap was placed on top. The test units were held for 7 days at 25° C. and 45-55% relative humidity. The amount of plant damage for each test unit was rated to determine the percent plant protection.

Compound: Cc1cc(Cl)cc(C(=O)NCC2CC2)c1NC(=O)c1cc(Br)nn1-c1ncccc1Cl [Compound 2]
- Mortality (obs) ([1]; 30 ppm): 2%
- Mortality (obs) ([1]; 100 ppm): 10%
- Mortality (obs) ([1]; 250 ppm): 31%
- % protection (obs) ([2]; 0.03 ppm): 37%
- % protection (obs) ([2]; 0.04 ppm): 77%
- % protection (obs) ([2]; 0.06 ppm): 93%
- Mortality (obs) ([3]; 8 ppm): 4%
- Mortality (obs) ([3]; 50 ppm): 17%
- Mortality (obs) ([3]; 250 ppm): 76%
- % protection (obs) ([4]; 5 ppm): 20%
- % protection (obs) ([4]; 150 ppm): 27%
- % protection (obs) ([4]; 250 ppm): 53%

Compound: Imidacloprid
- Mortality (obs) ([1]; 0.08 ppm): 2%
- Mortality (obs) ([1]; 0.2 ppm): 10%
- Mortality (obs) ([1]; 0.8 ppm): 71%
- % protection (obs) ([2]; 0.8 ppm): 73%
- % protection (obs) ([2]; 17 ppm): 80%
- % protection (obs) ([2]; 50 ppm): 90%
- Mortality (obs) ([3]; 0.08 ppm): 5%
- Mortality (obs) ([3]; 0.15 ppm): 44%
- Mortality (obs) ([3]; 0.3 ppm): 50%
- % protection (obs) ([4]; 11 ppm): 27%
- % protection (obs) ([4]; 77 ppm): 40%
- % protection (obs) ([4]; 250 ppm): 90%

Compound: Thiamethoxam
- Mortality (obs) ([1]; 0.2 ppm): 19%
- Mortality (obs) ([1]; 0.4 ppm): 73%
- Mortality (obs) ([1]; 0.6 ppm): 100%
- % protection (obs) ([2]; 30 ppm): 43%
- % protection (obs) ([2]; 40 ppm): 73%
- % protection (obs) ([2]; 50 ppm): 90%
- Mortality (obs) ([3]; 0.2 ppm): 44%
- Mortality (obs) ([3]; 0.4 ppm): 73%
- Mortality (obs) ([3]; 0.6 ppm): 87%
- % protection (obs) ([4]; 5 ppm): 0%
- % protection (obs) ([4]; 70 ppm): 77%
- % protection (obs) ([4]; 250 ppm): 100%
